Measured values as given in US7731994B2, “Pharmaceutical composition for protecting neurons comprising extract of lithospermum erythrothizon SIEB. ET. Zucc or acetylshikonin isolated therefrom as an effective ingredient” (Industry Academic Cooperation Foundation of Kyunghee …, priority 2007, dated 2010).
“Also recorded” adds a separate entry of the source.

Legend:
IL-1beta mRNA = assay: RT-PCR of IL-1beta mRNA expression in primary microglia cells activated by lipopolysaccharide; assay type: cell-based, Sprague-Dawley rat; details: 100 ng/ml lipopolysaccharide co-treated with 0.1, 1 uM, 24 hours
[1] = tested on: BV-2 cells activated by lipopolysaccharide; assay: NO generation (Griess reagent) in BV-2 cells activated by lipopolysaccharide; assay type: cell-based; details: 100 ng/ml lipopolysaccharide
Method: (§1) To investigate the effect of acetylshikonin on the activation of microglia cells which are macrophages in brain, NO generation was measured in BV-2 cells and primary microglia cells which are neuroglia cells, activated by lipopolysaccharide according to the previously reported methods with slight modifications (Min Kim J, et al., Neuroreport, 14(15), pp1941-1944, 2003).
(§2) BV-2 cells (Lab. of Dr. Eui-Ju Choi, Korea University) were maintained in DMEM (Dulbeccols Modified Eagle Medium, Gibco-BRL, England) supplemented with 10% FBS (Fetal Bovine Serum, Gibco-BRL, England) and 1% penicillin-streptomycin (Gibco-BRL, England). To obtain the primary microglia cells, brain cells were separated from the brain extracted from Sprague-Dawley rat (Taconic, Japan) at less than 1 week from the birth and the cells were cultured for approximately 2 weeks in DMEM having the same composition with the one used for BV-2 cell culture in a 75T flask and then the primary microglia cells were recovered. BV-2 cells and the primary microglia cells were distributed into a 96 well plate at the concentration of […] and then cultured in a 37° C., 5% CO2 incubator for overnight. […] OD570 was measured by Elyzerleader (Moleulat Device, USA) and the concentration was calculated by considering the level of sodium nitrite as standard.

[2] = tested on: primary microglia cells activated by lipopolysaccharide; assay: NO generation (Griess reagent) in primary microglia cells activated by lipopolysaccharide; assay type: cell-based, Sprague-Dawley rat; details: 100 ng/ml lipopolysaccharide
Method: as §1, §2

iNOS mRNA = assay: RT-PCR of iNOS mRNA expression in primary microglia cells activated by lipopolysaccharide; assay type: cell-based, Sprague-Dawley rat; details: 100 ng/ml lipopolysaccharide co-treated with 0.1, 1 uM, 24 hours
Method: To investigate the inhibition of iNOS mRNA expression by acetylshikonin, […] was performed.
The primary microglia cells cultured in DMEM supplemented with 10% FBS and 1% penicillin-streptomycin were distributed in a 6 well plate at the concentration of 4×10^6 cells/well, followed by culture for 24 hours. 100 ng/ml of lipopolysaccharide and 0.1, 1 uM of acetylshikonin were co-treated thereto, followed by activation of the cells for 24 hours. The control group was not treated with lipopolysaccaride. After 24 hours of activation, the culture medium was discarded and the cells were washed with cold PBS ([…]), to which trypsin was treated. 1 ml of PBS containing the cells was obtained, followed by centrifugation at 12,000 rpm for 2 minutes to separate the cells. The cells were lysed in RNA separation solution (easyblue) to extract RNA from the cells, followed by centrifugation at 12,000 rpm for 15 minutes. After treating chloroform, centrifugation was performed again at 13,000 rpm for 25 minutes and the supernatant was obtained and washed with isopropanol to extract RNA. cDNA was synthesized using 5 ug of the RNA and 5 μmol of primer at 45° C., followed by PCR. […]

[3] = tested on: rats with local brain ischemia induced by middle cerebral arterial occlusion; assay: Defensive effect in rats with local brain ischemia induced by middle cerebral arterial occlusion (TTC staining, infarct volume); assay type: in vivo, Sprague-dawley male rats; details: right after and 120 minutes after brain ischemia was induced, MCAo 120 min, 22 hours reperfusion
Method: Sprague-dawley male rats at 8 weeks having the weight of 280 g-300 g were purchased from Samtako, Inc., Korea. The rats were supplied with feed and water enough and adapted to the experimental environment for one week. Middle cerebral arterial occlusion was performed by intraluminal suture method based on the method of Zea longa, et al (Zea longa, et al., Stroke, 20, pp 84-91, 1989). Once middle cerebral artery of a rat is closed, blood flow is interrupted around middle cerebral arterial region so that oxygen and other energy source are exhausted, leading to cell death. In particular, tissue necrosis is observed in the center of the middle cerebral arterial region, striatum and temporal lobe, which is so called 'ischemic core'. Although not middle cerebral arterial region, the neighboring cells begin to be auto-destroyed, which is called '[…] penumbra'. 3 hours after blocking middle cerebral artery, necrosis starts and from 6 hours after blocking, cerebral ischemia is developed. The progress of cerebral ischemia continues for 24 hours after middle cerebral artery was closed for 120 minutes, and on the 3rd day, it reaches the highest degree. To measure the level of cerebral ischemia, it is necessary to measure correlated infarct volume (mm^3). […] Blood sugar and blood gas were measured from the blood sample. […]

TNF-alpha mRNA = assay: RT-PCR of TNF-alpha mRNA expression in primary microglia cells activated by lipopolysaccharide; assay type: cell-based, Sprague-Dawley rat; details: 100 ng/ml lipopolysaccharide co-treated with 0.1, 1 uM, 24 hours
iNOS = assay: Western blot of iNOS expression in primary microglia cells activated by lipopolysaccharide; assay type: cell-based, Sprague-Dawley rat; details: 100 ng/ml lipopolysaccharide co-treated with 0.1, 1 uM, 24 hours
Method: (§3) Western blot analysis was performed to investigate the inhibition of iNOS expression by acetylshikonin.
(§4) The primary microglia cells cultured in DMEM supplemented with 10% FBS and 1% penicillin-streptomycin were distributed in a 6 well plate at the concentration of 4×10^6 cells/well, followed by culture for 24 hours. 100 ng/ml of lipopolysaccharide and 0.1, 1 uM of acetylshikonin were co-treated thereto, followed by activation of the cells for 24 hours. The control group was not treated with lipopolysaccaride. After 24 hours of activation, the culture medium was discarded and the cells were washed with cold PBS, to which trypsin was treated. 1 ml of PBS containing the cells was obtained, followed by centrifugation at 12,000 rpm for 2 minutes to separate the cells. The cells were loaded in 50 μl of triple lysis buffer to decompose all the cell membranes and then centrifugation was performed at 12,000 rpm for 30 minutes to obtain supernatant, a protein layer. The obtained supernatant was diluted and protein was quantified by Bradford method. After quantification, an equal amount of protein proceeded onto 8% polyacrylamide gel electrophoresis. The separated proteins from the electrophoresis were transferred onto Hybond ECL nitrocellulose membrane, leading to the reaction with primary and secondary antibodies of iNOS and IL-1beta. ECL examination was performed.

IL-1beta = assay: Western blot of IL-1beta expression in primary microglia cells activated by lipopolysaccharide; assay type: cell-based, Sprague-Dawley rat; details: 100 ng/ml lipopolysaccharide co-treated with 0.1, 1 uM, 24 hours
Method: as §3, §4

[4] = 24 hours, 0.1, 0.5 and 1 uM tested, inhibition stated at 1 uM
[5] = 24 hours, 0.5 mM positive control

Row | SMILES | expression of mRNA of IL-1beta (IL-1beta mRNA) | NO generation [1, 4] | NO generation [2, 4] | expression of mRNA of iNOS (iNOS mRNA) | protective effect on brain tissue damage, compared with the control ([3]; 1 mg/kg orally) | protective effect on brain tissue damage, compared with the control ([3]; 3 mg/kg orally) | expression of mRNA of TNF-alpha (TNF-alpha mRNA) | expression of iNOS (protein) (iNOS) | expression of IL-1beta (protein) (IL-1beta) | NO generation [1, 5] | NO generation [2, 5]
1 | CC(=O)O[C@H](CC=C(C)C)C1=CC(=O)c2c(O)ccc(O)c2C1=O [acetylshikonin] | inhibited | inhibited the generation of nitric oxide dose dependently; also recorded: inhibition of NO generation | inhibited the generation of nitric oxide dose dependently; also recorded: inhibition of NO generation | inhibited | ~46.88% | 68.75% | inhibited | inhibited | inhibited |  | 
2 | CNC(=N)NCCC[C@H](N)C(=O)O [positive control, N super(G)-monomethyl-L-arginine, reference compound] |  |  |  |  |  |  |  |  |  | inhibition of NO generation | inhibition of NO generation
